Measured values reported in patent publication US12201620B2, “Compositions and methods for treating chemotherapy resistant cancer” (The Brigham And Women's Hospital, Inc., priority 2016, dated 2025).
“Also recorded” adds a separate entry of the source.

Experiments:
[1] = test system: Molm13 PPM1D-mutant pooled cells and control pooled cells; assay: In vitro competition experiment, PPM1D-mutant cells mixed with control cells; type: cell-based, human; conditions: 1:9 ratio, 100 nM cytarabine plus 100 nM GSK2830371
Description: FIG. 2B provides immunoblots of whole cell lysates from Molm13 control cells (control), PPM1D-mutant pooled clones and PPM1D frame-shift (fs) mutant single cell clones probed with anti-PPM1D and anti-Actin. […] FIG. 2D is a plot depicting viability assays in Molm13 PPM1D-mutant or control single cells clones that were treated with increasing concentrations of cyclophosphamide for 72 hours. FIG. 2E is a plot depicting viability assays in Molm13 PPM1D-mutant or control single cells clones that were treated with increasing concentrations of cisplatin for 72 hours. […] FIG. […] FIG. […] PPM1D and control sgRNAs were identified through their fluorophores.
(§1) 72 hour cell viability analysis in Molm13 PPM1D-mutant and control single cell clones after exposure to increasing doses of GSK2830371. FIG. 10F is a graph showing percent Annexin V positive cells in cells treated with PPM1D inhibitor or vehicle. Annexin V staining and flow cytometric analysis of Molm13 PPM1D-mutant and control single cell clones exposed to 3 μM of GSK2830371. *=p<0.05, **=p<0.01, ***=p<0.001
(§2) To study the sensitivity of PPM1D truncating mutations to chemotherapy exposure, frame-shift mutations were introduced in the PPM1D gene in Molm13 AML cells, which are TP53 wild-type, using CRISPR-Cas9.

[2] = test system: Molm13 PPM1D-mutant and control single cell clones; assay: 72-hour cell viability analysis; type: cell-based, human
Description: FIG. 2B provides immunoblots of whole cell lysates from Molm13 control cells (control), PPM1D-mutant pooled clones and PPM1D frame-shift (fs) mutant single cell clones probed with anti-PPM1D and anti-Actin. […] FIG. 2D is a plot depicting viability assays in Molm13 PPM1D-mutant or control single cells clones that were treated with increasing concentrations of cyclophosphamide for 72 hours. FIG. 2E is a plot depicting viability assays in Molm13 PPM1D-mutant or control single cells clones that were treated with increasing concentrations of cisplatin for 72 hours. […] FIG. 2G is a plot depicting flow cytometric readout of competition experiment with 5% pooled Molm13 PPM1D-mutant cells and 95% pooled Molm13 control cells exposed to 350 nM Cyclophosphamide or vehicle for 24 days. FIG. 2H is a plot depicting flow cytometric readout of competition experiment with 5% pooled Molm13 PPM1D-mutant cells and 95% pooled Molm13 control cells exposed to 1 μM Cisplatin or vehicle for 24 days. […] PPM1D and control sgRNAs were identified through their fluorophores.
The line represents the locally weighted scatterplot smoothing (LOESS) of 0.1. […] FIG. 8B is a vector map of the degradation reporter vector, with different PPM1D cDNA constructs inserted. FIG. 8C is a graph showing EGFP/mCherry ratio for Molm13 cells with overexpression of wild type PPM1D, truncated PPM1D or the C-terminal end of PPM1D. FIG. 8D is a graph showing EGFP/mCherry ratio for Molm13 p53^−/− cells with overexpression of wild type PPM1D, truncated PPM1D or the C-terminal end of PPM1D. FIG. 8E is a graph showing EGFP/mCherry ratio in Molm13 cells before and after exposure to MG132 (10 μM, 6 hours), normalized to pre-treatment values. FIG. 8F is a plot showing cell viability analysis in Molm13 control cells (control), Molm13 PPM1D truncating mutant cells (PPM1D mutant) and Molm13 cells with overexpression of wild-type PPM1D (WT overexpression). […] For all experiments the following apply: *=p<0.05, **=p<0.01, ***=p<0.001,****=p<0.0001
as §1
To study the role of PPM1D mutations in chemotherapy resistance, mutations in PPM1D were induced using the CRISPR-Cas9 system. […] Using sequence verified PPM1D mutant (fs) and empty vector control Molm13 cells, the effects of mutant and wild type PPM1D in the response to DNA damaging chemotherapy were analyzed. […] (FIG. 1C).
as §2

PPM1D phosphatase = target: T1, PPM1D phosphatase (Homo sapiens, UniProt O15297); conditions: Gilmartin et al. 2014; cited from earlier work
T1 sequence (O15297 1-605): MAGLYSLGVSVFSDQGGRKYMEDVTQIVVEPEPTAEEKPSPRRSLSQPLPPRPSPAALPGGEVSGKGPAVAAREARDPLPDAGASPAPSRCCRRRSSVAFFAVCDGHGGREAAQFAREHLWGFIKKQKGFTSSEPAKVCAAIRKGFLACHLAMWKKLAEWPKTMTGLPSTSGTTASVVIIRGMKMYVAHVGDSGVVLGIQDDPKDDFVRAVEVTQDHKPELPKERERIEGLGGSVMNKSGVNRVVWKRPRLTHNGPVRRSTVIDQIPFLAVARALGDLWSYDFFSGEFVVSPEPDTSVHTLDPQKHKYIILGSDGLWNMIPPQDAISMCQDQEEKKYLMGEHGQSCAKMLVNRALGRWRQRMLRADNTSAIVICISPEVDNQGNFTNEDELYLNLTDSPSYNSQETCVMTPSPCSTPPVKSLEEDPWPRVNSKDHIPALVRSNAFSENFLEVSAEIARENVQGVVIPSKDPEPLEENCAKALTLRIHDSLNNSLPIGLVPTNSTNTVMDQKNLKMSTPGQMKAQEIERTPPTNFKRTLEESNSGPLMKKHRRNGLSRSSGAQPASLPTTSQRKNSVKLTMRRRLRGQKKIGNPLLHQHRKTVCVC

[3] = test system: Molm13 PPM1D-mutant and Molm13 control single cell clones; assay: Immunoblot of whole cell lysates for p53 Ser15 and Chk1 Ser345 phosphorylation; type: cell-based, human; conditions: Molm13 PPM1D-mutant cells, 1 hour pretreated with GSK2830371, exposed to 400 nM cytarabine
[4] = test system: Molm13 PPM1D-mutant and control single cell clones; assay: Annexin V staining and flow cytometric analysis; type: cell-based, human; conditions: 3 μM of GSK2830371
From the text: FIG. 9E is a chart depicting the consensus sequence of PPM1D based on substrate analysis of 43 substrate candidates of PPM1D. FIG. 9F depicts 43 potential PPM1D substrate sites on pSer/Thr residues on 25 proteins. […] Only localized sites were considered. Figure discloses SEQ ID NOS 4-20 and 20-31, respectively, in order of appearance. FIG. 9G depicts a schema illustrating the components of the DNA-damage response pathway that are targeted by PPM1D in leukemia cells, based on the results from the phosphoproteomics analysis. Phospho-targets of PPM1D identified by mass spectrometry (FDR<0.1) are shown in bold. Predicted PPM1D target sites that were based on the identified consensus sequence with a glutamine at +1 and >2 acidic residues (p=3.595e-13, Fisher's exact test) are shown in italics.
as §1

[5] = test system: Molm13 PPM1D-mutant cells; assay: Quantitative phosphoproteomic analysis (KEGG P53 pathway phosphosites); type: cell-based, human; conditions: 400 nM AraC + 1 μM GSK2830371, 4 hours
Description: as §1
To explore the spectrum of PPM1D targets in hematopoietic cells, a quantitative phosphoproteomic analysis was performed in PPM1D wild-type and mutant cells at baseline and in response to chemotherapy. […] In addition, CDKN1A (p21) was identified as a new DNA damage response target of PPM1D. Based on the peptides with altered phosphorylation in PPM1D-mutant cells, a consensus sequence was identified for the serine-threonine phosphatase activity of PPM1D (FIGS. 9E and 9F). Because many phosphorylation sites are not located on peptides that are detected by mass spectrometry, the consensus sequence was used to predict additional PPM1D targets. Known PPM1D targets, including TP53, CHEK1, CHEK2, ATM, ATR and MDM2, bear the consensus target sequence. In addition, new phosphorylation sites were identified in components of the DNA damage response pathway that are predicted targets of PPM1D based on the consensus sequence. […]

Q: Which “competitive advantage of PPM1D-mutant cells during cytarabine plus PPM1D inhibitor” value [1] does the source give for `Cc1ncc(Cl)cc1NCc1ccc(C(=O)N[C@@H](CC2CCCC2)C(=O)NC2CC2)s1` [GSK2830371] here?
A: reversed the competitive advantage of PPM1D mutant cells; also recorded: could be reversed

Q: What about the “sensitivity of PPM1D-mutant cells versus control cells to single agent PPM1D inhibitor, cell viability” value ([2]; 72 hour, increasing doses) of the same molecule?
A: PPM1D mutant cells had an increased sensitivity; also recorded: increased sensitivity to single agent PPM1D inhibitor treatment when compared to control cells; also recorded: increased sensitivity to PPM1D inhibition with either compound in comparison to wild type control cells; also recorded: selectively kills PPM1D-mutant cells

Q: What about the “sensitivity of PPM1D-mutant cells to cytarabine when combined with PPM1D inhibitor” value ([2]; pre-treated 1 hour with 3 μM GSK2830371, 72-hour cytarabine treatment) of the same molecule?
A: increased the sensitivity of Molm13 PPM1D-mutant cells to cytarabine; also recorded: reverses the chemotherapy resistance phenotype

Q: What about the “selectivity for the PPM1D phosphatase” value (PPM1D phosphatase) of the same molecule?
A: highly selective for the PPM1D phosphatase

Q: What about the “p53 Ser15 phosphorylation with PPM1D inhibitor” value [3] of the same molecule?
A: increased the phosphorylation of p53

Q: What about the “p53 Ser15 phosphorylation with PPM1D inhibitor” value ([3]; listed as GKS2830371) of the same molecule?
A: increased p53 Ser15 phosphorylation

Q: What about the “sensitivity of PPM1D-mutant cells versus control cells to single agent PPM1D inhibitor, Annexin V staining” value [4] of the same molecule?
A: increased sensitivity to single agent PPM1D inhibitor treatment when compared to control cells

Q: What about the “aberrant phosphorylation pattern of PPM1D-mutant cells in response to chemotherapy” value [5] of the same molecule?
A: reversed the aberrant PPM1D mutant phosphorylation pattern; also recorded: complete reversal of the aberrant phosphorylation pattern
